PubChem BioAssay AID2789 (Sanford-Burnham Center for Chemical Genomics, 2010)
The source made the active and inactive calls. The rule behind the calls is not given here.

Test system: NF-kappaB luciferase reporter cells, doxorubicin-induced, luminescence
Assay: NF-kB luciferase suppression after doxorubicin – cell-based, doxorubicin inducer, set 2, SAR follow-up (AID 2789)

SMILES	IC50
COCCn1c(SCCCc2ccccc2)nc2c1c(=O)[nH]c(=O)n2C	> 25 µM (inactive)
C/C(Cl)=C\Cn1c(NCCc2ccccc2)nc2c1c(=O)n(C)c(=O)n2C	> 25 µM (inactive)
CCCCn1c(SCC(=O)Nc2nnc(CC)s2)nc2c1c(=O)n(C)c(=O)n2C	> 25 µM (inactive)
CC(C)n1c(SCCCc2ccccc2)nc2c1c(=O)[nH]c(=O)n2C	> 25 µM (inactive)
CCCCn1c(SCC(=O)c2ccccc2)nc2c1c(=O)[nH]c(=O)n2C	> 25 µM (inactive)
CCCn1c(SCC(=O)Nc2nc3c(s2)CCCC3)nc2c1c(=O)n(C)c(=O)n2C	> 25 µM (inactive)
Nc1nc2ccccc2n1CCOc1ccc(Cl)cc1	> 25 µM (inactive)
CCCn1c(SCCc2ccccc2)nc2c1c(=O)[nH]c(=O)n2C	> 25 µM (inactive)
CC(C)Sc1nc2c(c(=O)[nH]c(=O)n2C)n1Cc1ccccc1	> 25 µM (inactive)
C=CCn1c(SCCCc2ccccc2)nc2c1c(=O)[nH]c(=O)n2C	> 25 µM (inactive)
C/C=C/Cn1c(SCc2ccccc2)nc2c1c(=O)[nH]c(=O)n2C	> 25 µM (inactive)
C/C=C/Cn1c(SCc2ccc(Cl)cc2)nc2c1c(=O)[nH]c(=O)n2C	> 25 µM (inactive)
C/C=C/Cn1c(SCCCc2ccccc2)nc2c1c(=O)[nH]c(=O)n2C	> 25 µM (inactive)
CCCCCn1c(SCCc2ccccc2)nc2c1c(=O)[nH]c(=O)n2C	> 25 µM (inactive)
Cn1c(=O)[nH]c(=O)c2c1nc([N+](=O)[O-])n2Cc1ccccc1	> 25 µM (inactive)
